The inhibition is the share of the control response that was lost under treatment. For orientation: IC50 means the concentration that inhibits the measured activity by half. Low values mean higher potency, high ones lower potency.

Test [1] concerns the target T1, Mitogen-activated protein kinase 14 (Homo sapiens, UniProt Q16539). Kind of test: Percent inhibition determined in vitro against mitogen-activated protein kinase p38 alpha 2 derived from Escherichia coli at 5 uM.
For test [2], the target named is T1, Mitogen-activated protein kinase 14. As to the kind of experiment: In vitro inhibition of mitogen-activated protein kinase p38 alpha 2 derived from Escherichia coli.
The next test has as its system SW1353. As to the kind of experiment: Inhibition of IL-6 production by SW1353 cells treated with both cytokines IL-1 and TNF-alpha. The settings on record: Homo sapiens. It is filed as functional, cell-based.
Test [3] deals with T1, Mitogen-activated protein kinase 14. Kind of test: Inhibition of Mitogen-activated protein kinase p38 alpha 2.
For test [4] the target is unchanged. As to the kind of experiment: Inhibition of p38 alpha-2 kinase.

T1 sequence (Q16539 whole entry): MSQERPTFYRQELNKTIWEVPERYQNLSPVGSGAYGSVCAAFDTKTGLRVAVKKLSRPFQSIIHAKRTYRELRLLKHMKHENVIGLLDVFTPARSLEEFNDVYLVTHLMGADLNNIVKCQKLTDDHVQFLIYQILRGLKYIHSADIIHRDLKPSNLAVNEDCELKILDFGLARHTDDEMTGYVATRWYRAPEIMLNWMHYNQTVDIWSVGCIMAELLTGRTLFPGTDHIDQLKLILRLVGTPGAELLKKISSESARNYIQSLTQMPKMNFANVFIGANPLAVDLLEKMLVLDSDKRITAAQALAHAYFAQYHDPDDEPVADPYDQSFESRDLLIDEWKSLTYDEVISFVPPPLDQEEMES

Molecule `CCc1ccc(NC(=O)Nc2cc(C(C)(C)C)sc2C(=O)NC)cc1` yielded an inhibition in test [1] of 70%. In test [2], this molecule gave an IC50 of 119 nM.

`CCc1ccc(NC(=O)Nc2cc(C(C)(C)C)sc2C(=O)OC)cc1` yielded an inhibition in test [1] of 40%. In addition, half-maximal inhibition in test [2] (IC50) required 660 nM.

As for `COC(=O)c1[nH]c(C(C)(C)C)cc1NC(=O)Nc1cccc(Cl)c1`, the inhibition in test [1] is 95%. The molecule also showed an IC50 in test [2] of 27 nM.

On to `COC(=O)c1sc(CCC(C)C)cc1NC(=O)Nc1ccc(C)cc1`, for which the inhibition in test [1] came out at 8%.

For the molecule `COC(=O)c1sc([N+](=O)[O-])cc1NC(=O)Nc1ccc(C)cc1`, the inhibition in test [1] was 0%.

Turning to `COC(=O)c1sc(CC(C)C)cc1NC(=O)Nc1ccc(C)cc1`, the inhibition in test [1] amounted to 0%.

Consider `COC(=O)c1oc(C(C)(C)C)cc1NC(=O)Nc1ccc(C)cc1`, for which the IC50 in the test with SW1353 worked out at 335 nM; in test [2], 73 nM.

In turn, `COC(=O)c1[nH]c(C(C)(C)C)cc1NC(=O)Nc1ccc(Cl)cc1` showed an inhibition in test [1] of 92%. In addition, in test [2], the IC50 amounted to 43 nM.

Take `CNC(=O)c1sc(C(C)(C)C)cc1NC(=O)Nc1ccc(F)cc1`: the inhibition in test [1] turned out to be 80%. In test [2], this molecule had an IC50 of 88 nM.

For `COCCOC(=O)c1sc(C(C)(C)C)cc1NC(=O)Nc1ccc(C)cc1`, 464 nM corresponded to half-maximal inhibition in test [3] (IC50).

In the case of `COC(=O)COC(=O)c1sc(C(C)(C)C)cc1NC(=O)Nc1ccc(C)cc1`, the IC50 in test [3] came out at 5310 nM.

`CNC(=O)c1[nH]c(C(C)(C)C)cc1NC(=O)Nc1cccc2ccccc12`: the IC50 turned out to be 35 nM in the test with SW1353 and 28 nM in test [2]. The molecule also came in with an inhibition in test [1] of 96%.

Consider `COC(=O)c1sc(CCc2ccccc2)cc1NC(=O)Nc1ccc(C)cc1`, for which the inhibition in test [1] is 17%.

As for `COC(=O)c1oc(C(C)(C)C)cc1NC(=O)Nc1ccc(Cl)c(Cl)c1`, the IC50 in test [2] stood at 1200 nM.

Consider `CNC(=O)c1[nH]c(C(C)(C)C)cc1NC(=O)Nc1ccc(C)cc1`, for which the IC50 turned out to be 15 nM in the test on SW1353 and 67 nM in test [2].

`COC(=O)c1c(NC(=O)Nc2ccc(F)cc2)cc(C(C)(C)C)n1C` gave an inhibition in test [1] of 42%. In addition, the IC50 in test [2] amounted to 663 nM.

For `CNC(=O)c1oc(C(C)(C)C)cc1NC(=O)Nc1ccc(C)cc1`, in test [2], it took 32 nM to reach half-maximal inhibition (IC50).

For the molecule `Cc1ccc(NC(=O)Nc2cc(C(C)(C)C)sc2C(=O)OC(C)C)cc1`, it took 741 nM to reach half-maximal inhibition in test [3] (IC50).

The molecule `COC(=O)c1sc(C(C)(C)C)cc1NC(=O)Nc1ccc(NC(C)=O)cc1` registered an inhibition in test [1] of 23%.

As for `COC(=O)c1sc(C(C)(C)O)cc1NC(=O)Nc1ccc(C)cc1`, the inhibition in test [1] worked out at 34%.

In the case of `COC(=O)c1sc(C(C)(C)C)cc1NC(=O)Nc1ccc(C(C)=O)cc1`, the inhibition in test [1] turned out to be 21%.

For `COC(=O)c1sc(C(C)(C)C)cc1NC(=O)Nc1ccc(-c2ccccc2)cc1`, the inhibition in test [1] was 6%.

With `CNC(=O)c1[nH]c(C(C)(C)C)cc1NC(=O)Nc1cccc(Cl)c1Cl`, the IC50 in the test on SW1353 is 16 nM; in test [2], 44 nM. Further, the inhibition in test [1] worked out at 95%.

`CCCOC(=O)c1sc(C(C)(C)C)cc1NC(=O)Nc1ccc(C)cc1` displayed an IC50 in test [3] of 482 nM.

Regarding `COC(=O)c1oc(C(C)(C)C)cc1NC(=O)Nc1ccc(F)cc1`, the inhibition in test [1] was found to be 67%. For the same molecule, the IC50 in test [2] was determined as 210 nM.

For the molecule `Cc1ccc(NC(=O)Nc2cc(C(C)(C)C)sc2C(=O)OCCO)cc1`, in test [3], 57 nM corresponded to half-maximal inhibition (IC50).

`COC(=O)c1sc(N)cc1NC(=O)Nc1ccc(C)cc1` came in with an inhibition in test [1] of 90%. Inhibition in test [3] was half-maximal at 441 nM (IC50).

In test [2], `COC(=O)c1[nH]c(C(C)(C)C)cc1NC(=O)Nc1ccccc1` showed a half-maximal inhibitory concentration (IC50) of 44 nM.

For the molecule `COC(=O)c1[nH]c(C(C)(C)C)cc1NC(=O)Nc1ccc(C)cc1`, the IC50 in the test with SW1353 worked out at 1140 nM; in test [2], 33 nM.

In turn, `COC(=O)c1sc(C(C)(C)C)cc1NC(=O)Nc1ccc(C(C)C)cc1` gave an inhibition in test [1] of 10%.

Regarding `COC(=O)c1[nH]c(C(C)(C)C)cc1NC(=O)Nc1ccc(F)cc1`, the IC50 amounted to 464 nM in the test with SW1353 and 42 nM in test [2]. The molecule further had an inhibition in test [1] of 89%.

In the case of `COC(=O)c1sc(-c2ccccc2)cc1NC(=O)Nc1ccc(C)cc1`, the inhibition in test [1] came to 0%.

In turn, `COC(=O)c1sc(C(C)(C)C)cc1NC(=O)Nc1ccc(OC)cc1` came in with an inhibition in test [1] of 8%.

Molecule `COC(=O)c1c(NC(=O)Nc2ccc(C)cc2)cc(C(C)(C)C)n1C` gave an IC50 in test [2] of 400 nM.

In test [1], `COC(=O)c1oc(C(C)(C)C)cc1NC(=O)Nc1cccc(Cl)c1Cl` returned an inhibition of 97%. Further, half-maximal inhibition in test [2] (IC50) required 32 nM.

In test [1], `COC(=O)c1c(NC(=O)Nc2cccc3ccccc23)cc(C(C)(C)C)n1C` gave an inhibition of 67%. For the same molecule, in test [2], the IC50 was 253 nM.

The molecule `COC(=O)c1sc(C(C)(C)C)cc1NC(=O)Nc1ccc(O)cc1` came in with an inhibition in test [1] of 44%. 610 nM corresponded to half-maximal inhibition in test [2] (IC50).

Take `COC(=O)c1sc(C(C)(C)C)cc1NC(=O)Nc1ccc([N+](=O)[O-])cc1`: the inhibition in test [1] is 16%.

Molecule `Cc1ccc(NC(=O)Nc2cc(C(C)(C)C)sc2C(=O)OCCCO)cc1` displayed an IC50 in test [3] of 56 nM.

Take `CCOC(=O)c1sc(C(C)(C)C)cc1NC(=O)Nc1ccc(C)cc1`: the IC50 in test [3] was 3020 nM.

As for `CNC(=O)c1sc(C(C)(C)C)cc1NC(=O)Nc1ccc(C)cc1`, the IC50 with SW1353 stood at 1350 nM; in test [3], 34 nM.

`COC(=O)c1sc(C(C)(C)C)cc1NC(=O)Nc1ccc(C(=O)O)cc1` displayed an inhibition in test [1] of 4%.

In test [1], `COC(=O)c1sc(C(C)(C)C)cc1NC(=O)Nc1ccc(F)cc1` gave an inhibition of 35%. In test [2], this molecule came in with an IC50 of 830 nM.

The molecule `COC(=O)c1[nH]c(C(C)(C)C)cc1NC(=O)Nc1ccccc1Cl` displayed an inhibition in test [1] of 85%. The molecule also displayed an IC50 in test [2] of 60 nM.

As to `COC(=O)c1sc(C(C)(C)C)cc1NC(=O)Nc1ccccc1`, the inhibition in test [1] worked out at 68%. The midpoint of inhibition in test [2], the IC50, lay at 290 nM.

In turn, `COC(=O)c1sc(C(C)(C)C)cc1NC(=O)Nc1ccc(N)cc1` yielded an inhibition in test [1] of 40%. In test [2], this molecule returned an IC50 of 750 nM.

In test [1], `COC(=O)c1sc(C(C)(C)C)cc1NC(=O)Nc1cccc(Cl)c1Cl` had an inhibition of 79%. Half-maximal inhibition in test [2] (IC50) required 180 nM.

Regarding `COC(=O)c1sc(C(C)(C)C)cc1NC(=O)Nc1ccc(Cl)cc1`, the inhibition in test [1] amounted to 76%. Also, the IC50 in test [2] came out at 220 nM.

For the molecule `COC(=O)c1sc(C(C)C)cc1NC(=O)Nc1ccc(C)cc1`, in test [1], the inhibition turned out to be 37%.

For the molecule `COC(=O)c1sc(C(C)(C)C)cc1NC(=O)Nc1ccc(C)cc1`, the IC50 in test [4] worked out at 248 nM; in the test on SW1353, 905 nM; in test [3] it was 413 nM. The molecule further yielded an inhibition in test [1] of 94%.

As to `COC(=O)c1c(NC(=O)Nc2cccc(Cl)c2Cl)cc(C(C)(C)C)n1C`, the inhibition in test [1] was 50%. For the same molecule, 387 nM corresponded to half-maximal inhibition in test [2] (IC50).

`COC(=O)c1[nH]c(C(C)(C)C)cc1NC(=O)Nc1cccc2ccccc12`: the IC50 in the test with SW1353 turned out to be 309 nM; in test [2], 12 nM.

As for `COC(=O)c1[nH]c(C(C)(C)C)cc1NC(=O)Nc1cccc(Cl)c1Cl`, the IC50 amounted to 79 nM with SW1353 and 6 nM in test [2]. This molecule showed an inhibition in test [1] of 99%.

Molecule `COC(=O)c1c(NC(=O)Nc2ccccc2)cc(C(C)(C)C)n1C` showed an inhibition in test [1] of 32%. In test [2], this molecule registered an IC50 of 947 nM.

In the case of `CNC(=O)c1sc(C(C)(C)C)cc1NC(=O)Nc1ccc(C(C)C)cc1`, the inhibition in test [1] turned out to be 63%. Besides, inhibition in test [2] was half-maximal at 270 nM (IC50).

The record behind these values is ChEMBL document CHEMBL1134054, “p38 kinase inhibitors for the treatment of arthritis and osteoporosis: thienyl, furyl, and pyrrolyl ureas” (Bioorg Med Chem Lett, 2001).
